Measured values published in article PMC9937549 (Frontiers in tropical diseases, 2023).
In brackets after ≈: the same amount, converted by molar mass.

Experiments:
[1] = tested on: intramacrophage Leishmania; details: read-out: intramacrophage EC50; cited from earlier work
[2] = tested on: intracellular parasites of Leishmania donovani; assay: Antileishmanial potency against visceral leishmaniasis; format: cell-based; details: read-out: EC50 (visceral leishmaniasis)
[3] = tested on: host macrophage; assay: Host cell cytotoxicity in the same assay; format: cell-based; details: abstract
[4] = tested on: L. donovani intracellular amastigotes infecting THP-1 cells; assay: Intracellular amastigote assay; format: cell-based, Leishmania donovani; details: for inhibition of parasite growth (primary screen): single point 10 μM, L. donovani amastigotes in THP-1; for EC50: read-out: Intracellular Amastigote EC50, Leishmania donovani, THP-1 host, 72 h
[5] = tested on: L. donovani promastigotes; assay: Promastigote assay; format: cell-based; details: read-out: Extracellular promastigote EC50; Leishmania donovani, 72 h
[6] = tested on: L. major intracellular amastigotes; assay: Intracellular amastigote assay; format: cell-based; details: read-out: Intracellular Amastigote EC50; Leishmania major, THP-1 host, 72 h
[7] = tested on: L. major promastigotes; assay: Promastigote assay; format: cell-based; details: read-out: Extracellular promastigote EC50; Leishmania major, 72 h
[8] = tested on: THP-1 cells; assay: Host THP-1 cell cytotoxicity; format: cell-based, human; details: for cytotoxicity to the host THP-1 cells (GI): primary screen, single point 10 μM; for CC50: read-out: Host (THP-1) cell CC50, UCSF assay
[9] = tested on: L. donovani intracellular amastigotes infecting THP-1 macrophages; assay: GSK intramacrophage L. donovani assay; format: cell-based, Leishmania donovani; details: read-out: LD AMMAC EC50; growth inhibition of L. donovani intracellular amastigotes infecting THP-1 macrophages (GSK)
[10] = tested on: host THP-1 macrophages; assay: GSK LD MAC host cell toxicity readout of inMac assay; format: cell-based; details: read-out: LD MAC EC50; cytotoxicity against host THP-1 macrophages (GSK)
[11] = tested on: HepG2 cells; assay: HepG2 cytotoxicity; format: cell-based
[12] = Kinetic aqueous solubility by CLND; format: physicochemical; details: high-throughput CLND
[13] = Artificial membrane permeability; format: in vitro ADME; details: pH 7.4
[14] = biological target: human serum albumin (Homo sapiens, UniProt P02768); assay: Human serum albumin; format: in vitro ADME; details: immobilized HSA column
Chain of human serum albumin (P02768 25-609): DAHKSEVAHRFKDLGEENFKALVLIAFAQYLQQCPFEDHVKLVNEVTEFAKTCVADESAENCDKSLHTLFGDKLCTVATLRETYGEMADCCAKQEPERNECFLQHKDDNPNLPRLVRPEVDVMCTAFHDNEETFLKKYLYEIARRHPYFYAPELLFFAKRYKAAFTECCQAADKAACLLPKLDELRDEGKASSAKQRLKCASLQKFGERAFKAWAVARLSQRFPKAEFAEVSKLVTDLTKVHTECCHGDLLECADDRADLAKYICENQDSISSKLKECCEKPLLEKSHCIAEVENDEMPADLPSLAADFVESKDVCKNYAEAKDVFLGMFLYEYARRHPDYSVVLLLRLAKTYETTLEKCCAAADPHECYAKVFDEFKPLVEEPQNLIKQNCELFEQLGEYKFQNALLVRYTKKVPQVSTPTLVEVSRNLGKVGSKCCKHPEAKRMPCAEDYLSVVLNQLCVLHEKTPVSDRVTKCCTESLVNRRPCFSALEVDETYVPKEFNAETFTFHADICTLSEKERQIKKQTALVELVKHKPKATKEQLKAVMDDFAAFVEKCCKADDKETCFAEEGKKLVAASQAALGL

[15] = Property forecast index; format: physicochemical; details: ChromLogD7.4 + Aromatic rings
[16] = tested on: L. donovani intracellular amastigotes infecting B10R cells; assay: Intracellular amastigote assay; format: cell-based; details: read-out: L. donovani EC50; intracellular amastigotes infecting B10R cells (UCSD assay), average of two biological replicates
[17] = tested on: host B10R cells; format: cell-based
[18] = FaSSIF solubility; format: physicochemical; details: racemate
[19] = format: in vitro ADME; details: microsomes
[20] = Whole blood stability; format: in vitro ADME; details: criterion: no % reduction over 120 min; racemate
[21] = Plasma protein binding; format: in vitro ADME; details: racemate, rapid equilibrium dialysis

| EC50 [4] | EC50 [5] | EC50 [6] | EC50 [7] | EC50 [9] | Solubility (CLND) [12] | AMP [13] | HSA Binding [14] | PFI [15] | SMILES | EC50 [1] | inhibition of parasite growth (primary screen) [4] | cytotoxicity to the host THP-1 cells (GI) [8] | CC50 [8] | EC50 [10] | EC50 [11] | also measured |
| --- | --- | --- | --- | --- | --- | --- | --- | --- | --- | --- | --- | --- | --- | --- | --- | --- |
|  |  |  |  |  |  |  |  |  | O=C(Nc1ccc(F)c(-c2ccn3c(N4CCOCC4)cnc3n2)c1)N1CCCC1 [GSK3494245] | 1.6 µM |  |  |  |  |  |  |
|  |  |  |  |  |  |  |  |  | C[C@@H]1[C@H](O)[C@@H](C)/C=C/C=C/C=C/C=C/C=C/C=C/C=C/[C@H](O[C@@H]2O[C@H](C)[C@@H](O)[C@H](N)[C@@H]2O)C[C@@H]2O[C@](O)(C[C@@H](O)C[C@@H](O)[C@H](O)CC[C@@H](O)C[C@@H](O)CC(=O)O[C@H]1C)C[C@H](O)[C@H]2C(=O)O [amphotericin B] |  |  |  |  |  |  | EC50 [2]: 0.2 µM; concentration cytotoxic to the host cell [3]: 5.0 µM |
|  |  |  |  |  |  |  |  |  | COc1ccc(N2C(=O)c3[nH]nc(CC(C)C)c3C2c2ccc(C)cc2)cc1 (stereo not shown) [CMLD007430] |  | 0% |  |  |  |  |  |
| 2.5 µM | 2 µM | 1.3 µM | 4.4 µM | 2.5 µM | 107 µM (≈ 40.6 µg/mL) | 345 nm/s | 96.4% | 8.4 | COc1ccc(N2C(=O)c3[nH]nc(CC(C)C)c3C2c2ccc(F)cc2)cc1 (stereo not shown) [Compound 1] |  | > 99% | < 13 % GI | > 20 µM | 15.8 µM | 63.1 µM | EC50 [16]: 0.82 µM; CC50 [17]: > 20 µM; FaSSIF solubility [18]: 130 µg/mL; Microsomal stability (mouse) Clint [19]: < 3.4 mL/min/g; Microsomal stability (mouse) t1/2 [19]: > 20 min; Whole blood stability [20]: Pass; Plasma protein binding [21]: 97.5% |
|  |  |  |  |  |  |  |  |  | C[C@H]1CN(c2n[nH]c3nc(N[C@H]4CC[C@H](NS(=O)(=O)CCC(F)(F)F)CC4)ncc23)CCO1 [GSK3186899] | 1.4 µM |  |  |  |  |  |  |
| 3.7 µM | 2.4 µM | 1.7 µM | 4.2 µM | 3.2 µM | 90 µM (≈ 32.5 µg/mL) | 370 nm/s | 95.8% | 8.4 | COc1ccc(N2C(=O)c3[nH]nc(CC(C)C)c3C2c2ccccc2)cc1 (stereo not shown) [Compound 2] |  | > 99% | < 13 % GI | > 20 µM | 31.6 µM | 79.4 µM |  |
